The values below come from US4156777A, “Process for producing glucopyranose-nitrosourea compounds and novel compounds included therein” (Tokyo Tanabe Company, Limited, priority 1977, dated 1979).

Series [1] in a line: Absorption and excretion of 14C-labelled compounds. Type of series: in vivo, rats. The note with it: for dose excreted in expiration: within 24 hours. On the procedure:
The carbon atom at the 2-position of the chloroethyl group (i.e. ClCH2 CH2 -) of 6DCNU and 6MCαG was labelled with radioactive ^14 C, and the absorption and excretion of these compounds were tested using rats.

The conditions of series [2]: cited from earlier work.
Series [3] relates to leukemia L-1210. The experiment in a line: Antitumor activity against leukemia L-1210 implanted in BDF1 mice (ILS, 60 days survivors). It counts as in vivo. An excerpt:
Test compounds were given to BDF1 mice 24 hrs after implantation of 10^6 cells of leukemia L-1210 in each animal, through single intraperitoneal administration, intraperitoneal administration for 5 successive days, single oral administration or oral administration for 5 successive days, whereupon the increase in life span (referred to as "ILS") and number of 60 days survivors of test animals were estimated, said test of antitumor activity being that according to the method of the National Cancer Center, Tokyo [A. Hoshi et al: Farmashia, 9 (1973), 464]. In the tests, the compounds were dissolved in physiological saline solution just before administration.
^a i.p.: intraperitoneal administration p.o: oral administration
D1 : single administration D1~5 : administration for 5
^b percentage calculated from mean survival time over control
^c survivors/six animals

A short description of series [4]: Acute toxicity (LD50). It counts as in vivo, male Wister rats. Conditions: rat, in vivo, after 1 week. As for the experimental part:
Test compounds were dissolved in physiological saline solution just before their dosage and administered to male Wister rats, intraperitoneally, intravenously and orally. After 1 week, the LD50 of each compound was calculated from the mortality of the test animals by the Lichfield-Wilcoxon Method.
i.v.: intravenous administration

Series [5] can be described thus: Diabetogenic activity (blood glucose concentration after intravenous administration). It counts as in vivo, male Wister rats. On the procedure: 40-96 mg/kg of the test compounds were administered intravenously to starved male Wister rats weighing 240-260 g each, and the blood glucose concentrations of the test animals were estimated by the glucose exidase method [L. L. Saloman et al: Anal. Chem., 31 (1959), 453], in which test the compounds were dissolved in physiological saline solution just before administration. […]

Series [6] can be described thus: Effect on respiration, blood pressure, heart rate and electrocardiogram. Type of series: in vivo, Beagle dogs. The note with it: dog, in vivo, iv; injected into brachial veins, anesthetized Beagle dogs; read-out: maximum dosage not effected on respiration, blood pressure, heart rate and electrocardiogram. As for the experimental part:
Beagle dogs of both sexes weighing about 10 kg were anesthetized with pentobarbital sodium (30 mg/kg, i.v.), and immobilized in the supine position. Test compounds dissolved in physiological saline solution were injected into the brachial veins of the animals and the arteries at cannulated positions were treated with heparin sodium as anticoagulant.
The respiration rate of each animal was estimated with a respirometer (Nihonkohden, RP-3) through a tracheal cannula, the blood pressure with an electro-haemodynamometer (Nihonkohden, MP-4T) attached surgically to the femoral artery, and the heart rate with a pulse-rate tachometer (Nihonkohden, RT-2) through the trigger pulse of the blood pressure.

Series [7] can be described thus: Solubility in water at 25° C. Conditions: amount soluble in 1 ml water at 25° C. Type of series: physicochemical.
The mark [8] stands for this setting: known compounds, generally seen.
The mark [9] stands for this setting: 40 mg/kg i.v., 0 hr after treatment.
[10] abbreviates: 40 mg/kg i.v., 2 hr after treatment.
[11] abbreviates: 40 mg/kg i.v., 4 hr after treatment.
Where [12] appears, read: 40 mg/kg i.v., 7 hr after treatment.
Setting [13] is: 40 mg/kg i.v., 10 hr after treatment.
Where [14] appears, read: 40 mg/kg i.v., 24 hr after treatment.
Where [15] appears, read: 40 mg/kg i.v., 48 hr after treatment.
Where [16] appears, read: 60 mg/kg i.v., 0 hr after treatment.
Where [17] appears, read: 60 mg/kg i.v., 2 hr after treatment.
[18] abbreviates: 60 mg/kg i.v., 4 hr after treatment.
Setting [19] is: 60 mg/kg i.v., 7 hr after treatment.
Where [20] appears, read: 60 mg/kg i.v., 10 hr after treatment.
Setting [21] is: 60 mg/kg i.v., 24 hr after treatment.
[22] abbreviates: 60 mg/kg i.v., 48 hr after treatment.

In brackets after ≈: the same amount, converted by molar mass. Like-named read-outs stand apart in the source and are kept apart here.

`O=NN(C[14CH2]Cl)C(=O)NC[C@H]1OC(O)[C@H](O)[C@@H](O)[C@@H]1O` (stereo partly drawn) [6DCNU-^14 C]: the “dose excreted in urine” value in series [1] (within 12 hours after the dose) is 65-70%; in series [1] (within 72 hours after the dose), 75-80%. The “dose excreted in expiration” value in series [1] is 3-5%. Besides, the “dose excreted in faeces” value in series [1] (within 72 hours) was 10-15%.

Regarding `CO[C@H]1O[C@H](CNC(=O)N(C[14CH2]Cl)N=O)[C@@H](O)[C@H](O)[C@H]1O` [6MCαG-^14 C], the “dose excreted in urine” value in series [1] (within 12 hours after the dose) is recorded as 50-60%; in series [1] (within 96 hours after the dose), 80-90%. Besides, the “dose excreted in expiration” value in series [1] is 3-4%. For the same compound, in series [1] (within 96 hours), the “dose excreted in faeces” value is recorded as 5-6%.

As for `O=NN(CCCl)C(=O)N[C@H]1C(O)O[C@H](CO)[C@@H](O)[C@@H]1O` (stereo partly drawn) [DCNU, 1-(2-chloroethyl)-3-(D-glucopyranos-2-yl)-1-nitrosourea], the “diabetogenic activity, decreasing order” value in series [2] (setting [8]) is “SZ>DCNU>GANU> 2MCαG≈6MCαG”. The ILS in series [3] (1.6 mg/kg/day, i.p. D1~5) is listed as more than 143%; in series [3] (1.6 mg/kg/day, p.o. D1~5), -10%; in series [3] (3.2 mg/kg/day, i.p. D1~5) it was more than 407%; in series [3] (3.2 mg/kg/day, p.o. D1~5) it was 6%; in series [3] (4.5 mg/kg/day, i.p. D1~5), more than 406%; in series [3] (6.3 mg/kg/day, i.p. D1), more than 265%. The ILS in series [3] (6.3 mg/kg/day, i.p. D1~5) is on record as more than 622%; in series [3] (6.3 mg/kg/day, p.o. D1~5) it was 13%; in series [3] (9.0 mg/kg/day, i.p. D1~5), more than 153%; in series [3] (12.5 mg/kg/day, i.p. D1), more than 418%; in series [3] (12.5 mg/kg/day, p.o. D1~5), 13%; in series [3] (25.0 mg/kg/day, i.p. D1), more than 315%. Moreover, the ILS in series [3] (25.0 mg/kg/day, p.o. D1~5) is reported as 13%; in series [3] (50.0 mg/kg/day, i.p. D1), -10%; in series [3] (50.0 mg/kg/day, p.o. D1~5) it was 15%; in series [3] (100.0 mg/kg/day, p.o. D1~5) it was 18%; in series [3] (200.0 mg/kg/day, p.o. D1~5) it was -23%. Besides, the “Survivors (60 days)” value in series [3] (1.6 mg/kg/day, i.p. D1~5) was 1/6; in series [3] (3.2 mg/kg/day, i.p. D1~5) it was 3/6; in series [3] (4.5 mg/kg/day, i.p. D1~5), 3/6; in series [3] (6.3 mg/kg/day, i.p. D1), 3/6; in series [3] (6.3 mg/kg/day, i.p. D1~5), 5/6; in series [3] (9.0 mg/kg/day, i.p. D1~5), 1/6. Further, the “Survivors (60 days)” value in series [3] (12.5 mg/kg/day, i.p. D1) is recorded as 4/6; in series [3] (25.0 mg/kg/day, i.p. D1) it was 3/6. In series [3] (oral administration), the “antitumor activity in oral administration, in words” value is “no antitumor activity in oral administration”. In addition, the LD50 at 168 h in series [4] (ip) was found to be 44 mg/kg; in series [4] (po), 1150 mg/kg. Further, the “Blood Glucose Concentration” value in series [5] (setting [9]) is 67.5 mg/dL; in series [5] (setting [10]), 87.2 mg/dL; in series [5] (setting [11]), 74.6 mg/dL; in series [5] (setting [12]) it was 85.3 mg/dL; in series [5] (setting [13]) it was 110.2 mg/dL; in series [5] (setting [14]) it was 142.2 mg/dL. For the same compound, the “Blood Glucose Concentration” value in series [5] (setting [15]) amounted to 229.4 mg/dL; in series [5] (setting [16]) it was 68.2 mg/dL; in series [5] (setting [17]), 88.4 mg/dL; in series [5] (setting [18]) it was 72.4 mg/dL; in series [5] (setting [19]) it was 92.1 mg/dL; in series [5] (setting [20]) it was 115.7 mg/dL. Also, the “Blood Glucose Concentration” value is 162.6 mg/dL in series [5] (setting [21]); 242.3 mg/dL in series [5] (setting [22]); 70.5 mg/dL in series [5] (80 mg/kg i.v., 0 hr after treatment); 90.3 mg/dL in series [5] (80 mg/kg i.v., 2 hr after treatment); 68.6 mg/dL in series [5] (80 mg/kg i.v., 4 hr after treatment); 93.7 mg/dL in series [5] (80 mg/kg i.v., 7 hr after treatment). Moreover, the “Blood Glucose Concentration” value in series [5] (80 mg/kg i.v., 10 hr after treatment) worked out at 123.5 mg/dL; in series [5] (80 mg/kg i.v., 24 hr after treatment), 178.7 mg/dL; in series [5] (80 mg/kg i.v., 48 hr after treatment) it was 264.8 mg/dL. Further, the NOAEL in series [6] was 20 mg/kg. In series [7], this compound had a solubility of 40 mg/mL (≈ 128 mM).

With `O=NN(CCCl)C(=O)N[C@@H]1O[C@H](CO)[C@@H](O)[C@H](O)[C@H]1O` [GANU, 1-(2-chloroethyl)-3-(β-D-glucopyranosyl)-1-nitrosourea], in series [2] (setting [8]), the “diabetogenic activity, decreasing order” value is “SZ>DCNU>GANU> 2MCαG≈6MCαG”. In addition, the ILS in series [3] (1.0 mg/kg/day, i.p. D1) is 42%; in series [3] (5.0 mg/kg/day, i.p. D1) it was more than 280%; in series [3] (5.0 mg/kg/day, p.o. D1), 5%; in series [3] (10.0 mg/kg/day, i.p. D1) it was more than 295%; in series [3] (10.0 mg/kg/day, p.o. D1), 45%; in series [3] (15.0 mg/kg/day, i.p. D1), more than 507%. The ILS in series [3] (20.0 mg/kg/day, i.p. D1) was more than 518%; in series [3] (20.0 mg/kg/day, p.o. D1), 75%; in series [3] (25.0 mg/kg/day, i.p. D1), more than 472%; in series [3] (25.0 mg/kg/day, p.o. D1), 110%; in series [3] (35.0 mg/kg/day, p.o. D1), 70%. For the same compound, the “Survivors (60 days)” value was 2/6 in series [3] (5.0 mg/kg/day, i.p. D1); 2/6 in series [3] (10.0 mg/kg/day, i.p. D1); 5/6 in series [3] (15.0 mg/kg/day, i.p. D1); 5/6 in series [3] (20.0 mg/kg/day, i.p. D1); 5/6 in series [3] (25.0 mg/kg/day, i.p. D1). In addition, the results for the LD50 at 168 h in series [4] (ip), in series [4] (iv) and in series [4] (po) were 24 mg/kg, 10 mg/kg and 21 mg/kg, respectively. Besides, the “Blood Glucose Concentration” value turned out to be 67.8 mg/dL in series [5] (setting [9]); 70.4 mg/dL in series [5] (setting [10]); 71.3 mg/dL in series [5] (setting [11]); 94.4 mg/dL in series [5] (setting [12]); 98.2 mg/dL in series [5] (setting [13]); 120.3 mg/dL in series [5] (setting [14]). Further, the “Blood Glucose Concentration” value was determined as 186.5 mg/dL in series [5] (setting [15]); 67.3 mg/dL in series [5] (setting [16]); 71.2 mg/dL in series [5] (setting [17]); 72.6 mg/dL in series [5] (setting [18]); 95.4 mg/dL in series [5] (setting [19]); 105.9 mg/dL in series [5] (setting [20]). Besides, the “Blood Glucose Concentration” value in series [5] (setting [21]) turned out to be 125.5 mg/dL; in series [5] (setting [22]) it was 189.8 mg/dL. Also, the NOAEL in series [6] was 10 mg/kg.

As to `CN(N=O)C(=O)N[C@H]1C(O)O[C@H](CO)[C@@H](O)[C@@H]1O` (stereo partly drawn) [SZ, 3-(d-glucopyranos-2-yl)-1-methyl-1-nitrosourea], the “diabetogenic activity, decreasing order” value in series [2] (rat, in vivo) is reported as “SZ>DCNU>GANU> 2MCαG≈6MCαG”.

The LD50 is the dose expected to kill half of the subjects tested. High values mean a less toxic substance, low ones a more toxic substance. Usually solubility stands for the dissolved amount per volume that the medium holds.
